Data reported in publication PMC3117861, “Analysis of Proteasomal Proteolysis during the In Vitro Metacyclogenesis of Trypanosoma cruzi” (PLoS ONE, 2011).
Where a SMILES comes first, the peptide text is derived from it. The star is where a group is joined. Cbz = O=C(OCc1ccccc1)*

Target: T1, 20S proteasome (Trypanosoma cruzi, UniProt V5BU39)
T1 construct: gene TCDM_03188; ATP in assay, so 20S and 26S forms not separated; with Proteasome subunit beta type-1; Proteasome subunit beta type-2; Proteasome subunit beta type-3; Proteasome subunit beta type-4; Proteasome subunit beta type-7; Proteasome subunit alpha type-1; Proteasome subunit alpha type-2; Proteasome subunit alpha type-3; Proteasome subunit alpha type-4; Proteasome subunit alpha type-5; Proteasome subunit alpha type-6; Proteasome subunit alpha type-7
Test: fluorimetric peptidase assay in crude extract
Type: biochemical
Conditions: read-out: % inhibition at 50 μM (chymotrypsin-like activity)

CC(C)C[C@@H](C=O)NC(=O)[C@H](CC(C)C)NC(=O)[C@H](CC(C)C)NC(=O)OCc1ccccc1 [MG132] (Cbz-Leu-Leu-Leu-aldehyde)
inhibition at 50 µM: 95%
